Results: US20080118493A1, “Elevated Hedgehog Pathway Activity In Digestive System Tumors, And Methods Of Treating Digestive Sytem Tumors Having Elevated Hedgehog Pathway Activity” (priority 2003, published 2008)

Legend:
[1] = tested on: Hh pathway activity; assay: Hh-responsive reporter assay in first passage pancreas carcinoma xenograft cells; assay type: cell-based, human; settings: PTCH-expressing primary xenografts; 3.0 μM cyclopamine
Text: (§1) Cells and tissues: Origins and sources of cells and tissues are described in the Table (below). First passage pancreatic cancer xenografts were derived from freshly harvested pancreaticoduodenectomy specimens as described^14. […] After reaching 25 mm in greatest dimension, xenograft tumors were harvested, minced, and plated into tissue culture vessels in RPMI, 20% Fetal Bovine Serum (FBS) for assays as described below. The diagnosis of frozen samples from gastric and pancreatic adenocarcinoma resections and adjacent normal stomach and pancreas was microscopically confirmed by two pathologists, and RNA was prepared as described^14.
(§2) Hh-responsive reporter assays: Hh-responsive firefly luciferase and control SV-40 Renilla luciferase reporter assays were performed on subconfluent triplicate cultures as described^22.

[2] = tested on: tumor cell lines from esophagus, stomach, biliary tract, and pancreas; assay: cells
Experimental: Viable cell mass was determined by optical density measurements at 490 nm (O.D.490) at 2 and 4 days using the CellTiter96® colorimetric assay (Promega; Madison Wis.). Relative growth was calculated as {OD (day 4)-OD (day 2)}/OD (day 2).

[3] = tested on: HuCCT1 human cholangiocarcinoma xenograft; assay: HuCCT1 xenograft treatment in athymic (nude) mice; assay type: in vivo; settings: 50 mg/kg/day, subcutaneous injection
[4] = tested on: PZp53MED1 medulloblastoma cells; settings: medulloblastoma-derived cells; cited from earlier work
[5] = tested on: Hh pathway activity; assay: Hh-inducible reporter assay in HuCCT1 cholangiocarcinoma cells; assay type: cell-based, human; settings: purified SHH ligand to 25 nM
Experimental: as §2

[6] = tested on: single passage pancreatic cancer xenograft cells; assay: Proliferation (MTS) assay in first passage pancreatic cancer xenograft cells; assay type: cell-based, human
Text: as §1

[7] = tested on: PZp53MED1 medulloblastoma cells; assay: Proliferation assay in medulloblastoma cells; assay type: cell-based; settings: medulloblastoma cells from a mouse model of Gorlin syndrome, loss of PTCH function

Compound | GLI reporter expression [1] | significant growth inhibition, dependence on PTCH mRNA expression ([2]; 3.0 μM cyclopamine, MTS assay) | inhibition at 3 µM ([2]; Homo sapiens, read-out: growth inhibition) [%] | survival and adverse reactions ([3]; daily) | tumor regression (xenograft tumor volume) ([3]; within 14 days, tumors grown to 180 mm^3, n=9) | cell killing [4] | augmentation of reporter activity [5] | growth as a function of added SHH concentration ([6]; PX184 cells with 5E1 at a level just sufficient to block growth (0.1 μg/ml)) | growth ([6]; single passage pancreatic tumor xenograft that did not express PTCH mRNA (PX169)) | change in growth [7]
CC1=C2C[C@H]3[C@@H](CC=C4C[C@@H](O)CC[C@@]43C)[C@@H]2CC[C@]12O[C@@H]1C[C@H](C)CN[C@H]1[C@H]2C [cyclopamine] | cyclopamine-sensitive | only in tumor lines expressing PTCH mRNA | 75 to 95 | all mice survived cyclopamine treatment without obvious adverse reactions | Complete or near complete regression of all nine treated tumors | can be killed by cyclopamine treatment | – | – | – | –
SHH ligand: recombinant doubly lipid modified Sonic hedgehog (ShhNp) peptide | – | – | – | – | – | – | approximately 8 fold | Growth correlated positively with increasing concentrations | did not significantly affect growth | No significant ligand-induced or antibody-induced change in growth
